# Test results reported in patent publication US5175156A, “Chromic picolinate treatment” (Nutrition 21, priority 1991, dated 1992).
# Several values for one entry are separate records, joined by “and”; a condition that tells them apart may be missing. Identical values can stand only once. Entries after “also recorded” stand apart in the source; their conditions may differ.
# Legend:
# [1] = in vivo; cited from earlier work
# [2] = Absorption of orally administered chromium-51 compounds, radioactivity in liver and kidney (Example 1); settings: rat; for Total radioactivity in tissue, Kidney / Total radioactivity in tissue, Liver: 150 ng oral gavage, 120 h after administration
# Protocol: In this example, chromic tripicolinate was first synthesized by combining 3.66 grams of picolinic acid (Sigma Chemical, St. Louis) and 2.66 grams of chromic chloride with 20 ml. of deionized water. The solution was heated with stirring for 15 minutes after which the contents were placed in a refrigerator overnight to obtain maximum crystalization. The supernatant was removed by vacuum filtration followed by recrystalization from hot deionized water. To synthesize chromic (chromium-51) tripicolinate, 0.12 micromoles recrystalized picolinic acid was added to a solution containing 0.03 micromoles of chromic (Cr^51) chloride in 5.0 ml. acetate buffer, pH 5.0. The solution was stirred for 30 minutes at 90° C., cooled and subsequently reheated for 30 minutes at 90° C. The solution was cooled to room temperature before use.
# Each of four male Sprague-Dawley rats weighing 125-150g was given an oral dose of 150 ng. chromic (Cr-51) picolinate in 0.51 ml. by gavage tube. An identical quantity of Cr-5I as chloride in acetate buffer was also administered to each of four rats. […] One hundred twenty hours after oral administration of the two forms of labeled chromium, each of the rats was killed by exsanguination after which the liver and kidneys were removed and cut into 1.0 g portions for assay of radioactivity content.
# [3] = Oral toxicity experiment in rats (Example 2); type: in vivo
# Protocol: In a toxicity experiment, rats weighing a mean of 223.4 g were given an oral suspension of 100 mg, 300 mg and 500 mg chromic tripicolinate in water. […] The tests were stopped at 500 mg because it was impossible to obtain a workable suspension beyond this level.
# serum lipid parameters = assay: Double-blind cross-over human study, serum lipid parameters (Example 3); type: in vivo
# Protocol: Chromium tripicolinate was synthesized by first dissolving 2.66 g CrCl3.6 H2 O in 25 ml warm (60° C.), deionized water. Thereafter, 3.69 g picolinic acid (Sigma Chemical, St. Louis, Mo., U.S.A.) was added and the contents were stirred with gentle heating until the solution turned purple and crystals began to form. The solution was then left standing at 4° C. overnight. The supernatant was then discarded and the crystals were airdried at room temperature.
# The placebo contained only 5 mg calcium phosphate. […] Compliance by subjects was monitored by capsule count. The foregoing study protocol is illustrated in FIG. 1.
# [4] = Anabolic effect in male university students in weight training (Example 5); type: in vivo, human
# Protocol: This study was performed to evaluate the anabolic effect of chromic tripicolinate in male subjects.
# At the start of the study, 10 male university students enrolled in weight training classes, were given, at random, a 40-day supply of capsules that contained either placebo (5 mg of calcium phosphate) or chromic tripicolinate ([…] chromic tripicolinate admixed with 5 mg of calcium phosphate, which provided 200 ug of chromium). The identity of the capsules was known only to an individual who was not in any way involved in the study. During the 40-day period, each of the volunteers followed a prescribed weight lifting protocol for a total of 3 hours per week. Measurements taken at the beginning and again at the end of the study included various skin-fold thicknesses, biceps and calf circumferences, and body weight. Percent body fat was derived from the sum of the triceps, subscapular and chest skinfolds. Lean body mass was derived from anthropometrically-determined percent body fat: weight-(weight×percent body fat).
# [5] = system: insulin and insulin receptors; assay: Binding to insulin and insulin receptors; settings: no data given
# [6] = system: Glucose Tolerance Factor activity; assay: Glucose Tolerance Factor activity; settings: no data given
# [7] = in vivo
# Protocol: Subjects for the study were obtained after screening a group of volunteers. Thirty-two volunteers age 25-80 with total cholesterol levels of 5.7-8.3 mmoles/l (220-320 mg/dl) were initially chosen. […] None of the subjects was using beta blockers, thiazide diuretics, steroids, chromium supplements or any investigational drugs. The volunteers were requested not to alter dietary or exercise habits during the course of the study. Informed consent was obtained and the subjects were paid a stipend for their participation.
# For the double-blind, cross-over study, subjects were divided randomly into two treatment groups by a non-participant. During each half of the study participants ingested gelatin capsules that contained either chromic tripicolinate or a placebo. The chromic tripicolinate supplement contained 1.6 mg chromium tripicolinate (200 micrograms Cr^+3) mixed with 5 mg calcium phosphate. The placebo contained only 5 mg calcium phosphate. The study consisted of two 42-day periods with a 14-day period off capsules between treatments. Compliance by subjects was monitored by capsule count.
# At the beginning, after three weeks and at the end of each period, heart rate, blood pressure, weight and temperature were measured and a fasting-blood sample was drawn. Serum parameters measured included total cholesterol, LDL-cholesterol, HDL-cholesterol, triglycerides, apolipoprotein A1 and apolipoprotein B. Serum concentrations of cholesterol and triglycerides were determined with an Olympus 500 Automated Colormetric System (Olympus Instrument Co., Los Angeles, Calif., U.S.A.). HDL-cholesterol was assayed with an enzyme heparin-manganese chloride precipitation method (Albers et al., Clin Chem., 1978; 24:853-856). LDL-cholesterol was estimated by the method of Friedwald (Friedwald, Clin Chem., 1972; 18:499-502). Concentrations of apolipoprotein A1 and apolipoprotein B in serum were assayed with a nephelometric immunoassay (Naito, J. Clin. Immunol.. 1986; 9:110-120) using a Boehringer laser kit.
# For statistical analysis of the measurements made in this study, the values obtained at the beginning and at the end of each 42-day period were used. Because each subject served as its own control, paired t tests were used to identify statistically significant differences between mean values of changes and differences in changes. Student's t test and p values were determiend with the program WORMSTAT™ (available from Small Business Computers, New England, Conn., U.S.A.).
# [8] = system: adult onset diabetes mellitus (AODM)
# Protocol: Eleven subjects with adult onset diabetes mellitus (AODM), participated in this study. These subjects had hemoglobin A1 C concentrations greater than 9.0 and were on stable doses of oral hypoglycemic agents for four months. […] The dose of oral agent remained constant during the study.
# The following parameters: Cholesterol, HDL, LDL, and hemoglobin A1 C were tested initially, and at the end of each half of the study. Fasting blood sugars, blood pressure, weight and temperature were tested initially; at three weeks; and at the end of the study.
# Glycosylated hemoglobin was measured by a modification of the method of Clegg and Schroeder (Clegg, et al. J. Lab Clin. Med., 102:577-589, (1983)), using a Fast Hemoglobin Minicolumn, available from Isolab; Akron, Ohio, U.S.A.). Normal values are 5.5 to 7.5%. Fasting glucoses were measured by finger stick glucometer readings (using an Accucheck II from Boehringer Mannheim, Indianapolis, Ind., U.S.A.).
# Split samples of cholesterol were sent to laboratories for analysis. Split samples of apolipoproteins were analyzed on a Beckman Array protein analyzer that was standardized by the Center for Disease Control, Atlanta, Georgia, U.S.A., using Lipid Research Clinic Guidelines (see J. A. M. A. 251: 351, (1984) and J. A. M. A. 251: 365, (1984)).
# For EXAMPLE 4, summary statistics are expressed as the mean ± standard error of the mean (SEM). Split-plot analyses of variance were used to assess treatment effects on the various parameters in the cross-over studies of variance (see Hills, et al., Br. J. Clin. Pharmacol. 8:7-20, (1979)). Correlation analysis was performed with a linear regression curve-fitting program.
# [9] = 28 subjects, mean ± SD, 42 days
# [10] = 28 subjects, mean ± SD, 42 days, listed as Chromic Tripicolinate
# [11] = 28 subjects, mean ± SD, start of 42-day period
# [12] = combined results, 42 days, p<0.001
# [13] = 6 weeks Cr supplementation, 11 AODM subjects, mean ± SEM
# [14] = 6 weeks Cr supplementation, 11 AODM subjects, mean ± SEM, significant difference from placebo, p <0.05
molecule,measurement,setting,value
[Cr] [chromium],"effect of supplementation, result in words",[1],"improvements in glucose tolerance, serum lipid concentrations, including high-density lipoprotein cholesterol, insulin and insulin binding"
chromic tripicolinate,rate of absorption relative to chromic chloride,"[2]; in vivo, po, 7200 min",about 4 times
same,human dose before any effects would be observed,"[3]; 70 Kg human, extrapolated from rats",greater than 156 grams
same,oral lethal dose,"[3]; rats, mean 223.4 g, oral suspension in water",> 2200 mg/kg
same,deaths,"[3]; rats, oral 100 mg, 300 mg and 500 mg",No deaths occurred
same,"Apo B, change","serum lipid parameters; 28 subjects, 42 days, p = .001",-25 mg/dL
same,"Apo A, change","serum lipid parameters; 28 subjects, 42 days, p = .003",+16 mg/dl
same,"apolipoprotein B, reduction","serum lipid parameters; 28 subjects, 42 days, p=0.001",16%
same,"LDL-cholesterol, final","serum lipid parameters; 28 subjects, after 42 days",178 mg/dL
same,"LDL-cholesterol, initial","serum lipid parameters; 28 subjects, before 42 days",200 mg/dL
same,"Apo A, final",serum lipid parameters; [9],163 ± 31 mg/dL
same,"Apo B, final",serum lipid parameters; [9],130 mg/dL
same,"Cholesterol Total, final",serum lipid parameters; [9],256 mg/dL
same,"LDL, final",serum lipid parameters; [9],5.1 mmol/L
same,"Cholesterol Total, final","serum lipid parameters; 28 subjects, mean ± SD, 42 days, 200 micrograms Cr daily",6.6 mmol/L
same,"Cholesterol Total, final","serum lipid parameters; 28 subjects, mean ± SD, 42 days, 200 micrograms Cr daily, listed as Chromic Tripicolinate",6.6 ± 1.0 mmol/L
same,"Apo B, final",serum lipid parameters; [10],130 ± 45 mg/dL
same,"Cholesterol Total, final",serum lipid parameters; [10],256 ± 41 mg/dL
same,"Apo A, initial",serum lipid parameters; [11],147 ± 28 mg/dL
same,"Apo B, initial",serum lipid parameters; [11],155 mg/dL
same,"LDL, initial",serum lipid parameters; [11],5.7 mmol/L
same,"Apo B, initial","serum lipid parameters; 28 subjects, mean ± SD, start of 42-day period, listed as Chromic Tripicolinate",155 ± 50 mg/dL
same,"serum HDL-cholesterol, change in words","serum lipid parameters; 28 subjects, p>0.05",increased slightly but not significantly
same,"LDL-cholesterol, decrease",serum lipid parameters; 42 days,10% and 10.5%
same,"Total cholesterol concentration, decrease",serum lipid parameters; 42 days,7%
same,"serum triglycerides, change in words",serum lipid parameters; 42 days,No significant changes
same,"LDL-cholesterol, change in words",serum lipid parameters; [12],decreased significantly; also recorded: significant (p<0.001) reductions
same,"total cholesterol, change in words",serum lipid parameters; [12],decreased significantly; also recorded: significant (p<0.001) reductions
same,"apolipoprotein B, change in words","serum lipid parameters; combined results, 42 days, p=0.001",significant reduction; also recorded: decreased significantly
same,"apolipoprotein A1, change in words","serum lipid parameters; combined results, 42 days, p=0.003",significant elevation; also recorded: significantly elevated
same,"LDL-cholesterol, change in words","serum lipid parameters; final 42 days, placebo-first group, p=0.003",decreased significantly
same,"total cholesterol, change in words","serum lipid parameters; final 42 days, placebo-first group, p=0.009",decreased significantly
same,"apolipoprotein B, change in words","serum lipid parameters; first 6-week period, subjects starting with chromic tripicolinate, p=0.003",significantly decreased
same,"total cholesterol, change in words","serum lipid parameters; first 6-week period, subjects starting with chromic tripicolinate, p=0.007",significantly decreased
same,"LDL-cholesterol, change in words","serum lipid parameters; first 6-week period, subjects starting with chromic tripicolinate, p=0.015",significantly decreased
same,"apolipoprotein A1, change in words","serum lipid parameters; first 6-week period, subjects starting with chromic tripicolinate, p=0.047",significantly elevated
same,subjects with decreased LDL-cholesterol,serum lipid parameters; of 28 subjects,20
same,subjects with elevated cholesterol,serum lipid parameters; of 28 subjects,4
same,subjects with lower total cholesterol,serum lipid parameters; of 28 subjects,22
same,subjects with unchanged LDL-cholesterol,serum lipid parameters; of 28 subjects,3
same,subjects with unchanged total cholesterol,serum lipid parameters; of 28 subjects,2
same,"apolipoprotein B, change in words","serum lipid parameters; placebo-first group, after chromic tripicolinate, p=0.072","decreased, but not significantly"
same,"apolipoprotein A1, change in words","serum lipid parameters; placebo-first group, chromic tripicolinate period, p=0.007",increased significantly
same,"calculated lean body mass, increase","[4]; 40 days, 200 ug chromium, P=0.017",1.6 kg
same,"calf circumference, increase","[4]; 40 days, 200 ug chromium, P=0.029",1.15±0.67 cm
same,"body weight, increase","[4]; 40 days, 200 ug chromium, P=0.0325",2.18 ± 1.34 kg
same,increase in lean body mass compared with placebo group,"[4]; Student's t test, P=0.0198",significantly greater
same,binding to insulin and insulin receptors,[5],binds to insulin and insulin receptors
same,Glucose Tolerance Factor activity,[6],has Glucose Tolerance Factor activity
same,"blood pressure, change in words",[7],No significant changes
same,"heart rate, change in words",[7],No significant changes
same,subjects who developed a fine rash about their forearms,[7],one
same,subjects who developed mouth ulcers,[7],one
same,"temperature, change in words",[7],No significant changes
same,Cholesterol,[8]; [13],211.4
same,HDL,[8]; [13],52.3
same,LDL,[8]; [13],139.5
same,Fasting Bld Sugar,[8]; [14],162.2
same,Hemoglobin A1 C,[8]; [14],10.4
same,"HDL, trend in words",[8]; P was not <0.05,trends were favorable
same,"cholesterol, trend in words",[8]; P was not <0.05,trends were favorable
same,"fasting glucose, change in words",[8]; diabetic subjects,significant decreases
same,"glycosylated hemoglobin, change in words",[8]; diabetic subjects,significant decreases
same,"Blood Pressure, first figure","[8]; human, in vivo",132.9
same,"Blood Pressure, second figure","[8]; human, in vivo",72.4
same,Heart Rate,"[8]; human, in vivo",70.1
same,Temperature,"[8]; human, in vivo",97.8 °F
same,"blood pressure, change in words","[8]; human, in vivo",no significant changes
same,"heart rate, change in words","[8]; human, in vivo",no significant changes
same,"temperature, change in words","[8]; human, in vivo",no significant changes
same,"weight, change in words","[8]; human, in vivo",no significant changes
same,"LDL, decrease",[8]; treatment versus placebo (FIG. 9),8%
"[Cl][51Cr]([Cl])[Cl] [Chromic (Cr-51) Chloride, chromic (Cr^51) chloride, reference compound]","Total radioactivity in tissue, Kidney",[2],39030 CPM
same,"Total radioactivity in tissue, Liver",[2],30050 CPM
"O=C([O-])c1ccccn1.O=C([O-])c1ccccn1.O=C([O-])c1ccccn1.[Cr+3] [Chromic (Cr-51) Picolinate, chromic (chromium-51) tripicolinate]","Total radioactivity in tissue, Kidney",[2],157525 CPM
same,"Total radioactivity in tissue, Liver",[2],115075 CPM
"[Cl][Cr]([Cl])[Cl] [chromic chloride, reference compound]","effect of supplementation, result in words",[1],improvements of risk factors associated with maturity-onset diabetes and cardiovascular diseases
